Common to all, as to assay type: cell-based, mouse
In test [1] the test system is NIH3T3 cells overexpressing HNF1. In words: MTT cell viability, HNF1 overexpressing cells vs parental line. To be noted: HNF1 high-expressing cells / parental cell line, 3 to 4 days. An outline of the steps: (§1)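 NIH3T3 high expressers vs parental; 2-fold serial dilution of drugs (DMSO stocks), 9 points; 10% CS-DMEM; 3–4 d culture; MTT 4 h 37 °C, stop with 0.04N HCl/isopropanol; A574/655. Readout is log(IC40 ratio).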

Test [2] has as its system NIH3T3 cells overexpressing TK. Nature of the test: MTT cell viability, TK overexpressing cells vs parental line. To be noted: TK high-expressing cells / parental cell line, 3 to 4 days. An outline of the steps:
(§2)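 Stable NIH3T3 transfectants (cDNA in pRc-CMV-type vector, G-418-selected, high expressers picked by Western blot) and parental cells were seeded at 1×10^5 cells/ml into twofold serial drug dilutions and grown 3–4 days. MTT formazan was read at 574/655 nm, and log ratios of IC40 values were derived.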

In test [3] the test system is NIH3T3 cells overexpressing cystatin alpha. Nature of the test: MTT cell viability, cystatin alpha overexpressing cells vs parental line. To be noted: cystatin alpha high-expressing cells / parental cell line, 3 to 4 days. An outline of the steps: as §2
Test [4] deals with NIH3T3 cells overexpressing Ki-ras. In words: MTT cell viability, Ki-ras overexpressing cells vs parental line. To be noted: Ki-ras high-expressing cells / parental cell line, 3 to 4 days. An outline of the steps: as §2
Test [5] has as its system NIH3T3 cells overexpressing caspase-1. Nature of the test: MTT cell viability, caspase-1 overexpressing cells vs parental line. To be noted: caspase-1 high-expressing cells / parental cell line, 3 to 4 days. In outline: as §1
The subject of test [6] is NIH3T3 cells overexpressing HNF4. In words: MTT cell viability, HNF4 overexpressing cells vs parental line. To be noted: HNF4 high-expressing cells / parental cell line, 3 to 4 days. In outline:
as §1

Test [7] deals with NIH3T3 cells overexpressing CBP8. Nature of the test: MTT cell viability, CBP8 overexpressing cells vs parental line. To be noted: CBP8 high-expressing cells / parental cell line, 3 to 4 days. An outline of the steps:
as §2

Test [8] deals with NIH3T3 cells overexpressing cystatin E. In words: MTT cell viability, cystatin E overexpressing cells vs parental line. To be noted: cystatin E high-expressing cells / parental cell line, 3 to 4 days. In outline: as §2
In test [9] the test system is NIH3T3 cells overexpressing p38-DN. In words: MTT cell viability, p38-DN overexpressing cells vs parental line. To be noted: p38-DN high-expressing cells / parental cell line, 3 to 4 days. In outline: as §1
Test [10] concerns NIH3T3 cells overexpressing p33/ING1. Nature of the test: MTT cell viability, p33/ING1 overexpressing cells vs parental line. To be noted: p33/ING1 high-expressing cells / parental cell line, 3 to 4 days. An outline of the steps:
as §2

Test [11] has as its system NIH3T3 cells overexpressing Bax. Nature of the test: MTT cell viability, Bax overexpressing cells vs parental line. To be noted: 3 to 4 days. In outline: as §1
The test system of test [12] is NIH3T3 cells overexpressing PKCepsilon-KN. Nature of the test: MTT cell viability, PKCepsilon-KN overexpressing cells vs parental line. To be noted: 3 to 4 days. An outline of the steps: as §1
The subject of test [13] is NIH3T3 cells overexpressing coup. In words: MTT cell viability, coup overexpressing cells vs parental line. To be noted: coup high-expressing cells / parental cell line, 3 to 4 days. An outline of the steps: as §2
Test [14] has as its system NIH3T3 cells overexpressing caspase-2. Nature of the test: MTT cell viability, caspase-2 overexpressing cells vs parental line. To be noted: caspase-2 high-expressing cells / parental cell line, 3 to 4 days. An outline of the steps: as §2
The test system of test [15] is NIH3T3 cells overexpressing STAT1. In words: MTT cell viability, STAT1 overexpressing cells vs parental line. To be noted: STAT1 high-expressing cells / parental cell line, 3 to 4 days. An outline of the steps:
as §1

In test [16] the test system is NIH3T3 cells overexpressing HNF3b. In words: MTT cell viability, HNF3b overexpressing cells vs parental line. To be noted: HNF3b high-expressing cells / parental cell line, 3 to 4 days. In outline: as §1
The subject of test [17] is NIH3T3 cells overexpressing PDGF-R-Del. In words: MTT cell viability, PDGF-R-Del overexpressing cells vs parental line. To be noted: PDGF-R-Del high-expressing cells / parental cell line, 3 to 4 days. In outline: as §2
In test [18] the test system is NIH3T3 cells overexpressing N-ras. Nature of the test: MTT cell viability, N-ras overexpressing cells vs parental line. To be noted: N-ras high-expressing cells / parental cell line, 3 to 4 days. An outline of the steps:
as §2

In test [19] the test system is NIH3T3 cells overexpressing calpastatin. In words: MTT cell viability, calpastatin overexpressing cells vs parental line. To be noted: calpastatin high-expressing cells / parental cell line, 3 to 4 days. An outline of the steps: as §2
Setting [20] is: Bax (first of two Bax lines) high-expressing cells / parental cell line.
Setting [21] is: Bax (second of two Bax lines) high-expressing cells / parental cell line.
The mark [22] stands for this setting: PKCepsilon-KN (first of two lines) high-expressing cells / parental cell line.
Where [23] appears, read: PKCepsilon-KN (second of two lines) high-expressing cells / parental cell line.

The results in this text go back to patent publication US20040086901A1, “Database for analyzing gene function and method of analyzing gene function by dspa” (priority 2000, published 2004).

With `C=C[C@@]1(C)CC(=O)[C@]2(O)[C@@]3(C)[C@@H](O)CCC(C)(C)[C@@H]3[C@H](O)[C@H](OC(C)=O)[C@@]2(C)O1` [Forskolin, forskolin], the “logarithmic value of ratio of IC40 values” in test [1] stood at 1.15; in [2], 0.56; in test [3], 0.72; in [4], 0.36; in test [5], 0.34; in test [6] it was 0.00. Also, the “logarithmic value of ratio of IC40 values” in [7] was 0.40; in [8] it was 0.29; in [9], −0.46; in [10], 0.63; in test [11] (setting [20]), 0.00; in test [11] (setting [21]), −0.26. Besides, the “logarithmic value of ratio of IC40 values” was 0.00 in [12] (setting [22]); 0.00 in test [12] (setting [23]); 0.78 in test [13]; −0.34 in test [14]; 0.51 in test [15]; 0.00 in [16]. Moreover, the “logarithmic value of ratio of IC40 values” is listed as 0.51 in [17], 0.54 in test [18] and −0.09 in test [19].
For `O=c1c(-c2ccc(O)cc2)coc2cc(O)cc(O)c12` [Genistein, genistein], the “logarithmic value of ratio of IC40 values” in test [1] is on record as 0.234; in test [2], 0.08; in [3], 0.28; in test [4], 0.00; in test [5] it was −0.12; in [6], −0.15. Further, the “logarithmic value of ratio of IC40 values” in test [7] is on record as 0.10; in [8], 0.21; in test [9] it was 0.00; in test [10] it was 0.78; in [11] (setting [20]) it was 0.20; in test [11] (setting [21]), 0.38. For the same molecule, the “logarithmic value of ratio of IC40 values” was 0.00 in test [12] (setting [22]); 0.19 in test [12] (setting [23]); 0.44 in test [13]; 0.30 in [14]; 0.10 in [15]; −0.21 in [16]. Further, the “logarithmic value of ratio of IC40 values” in [17] was 0.33; in test [18], 0.42; in [19], 0.127.
On to `COC[C@H]1OC(=O)c2coc3c2[C@@]1(C)C1=C(C3=O)[C@@H]2CCC(=O)[C@@]2(C)C[C@H]1OC(C)=O` [Wortmannin, wortmannin], for which the “logarithmic value of ratio of IC40 values” in [1] stood at 0.16; in [2], 0.00; in test [3], 0.45; in [4], 0.34; in test [5], 0.20; in test [6], 0.14. The “logarithmic value of ratio of IC40 values” in test [7] is recorded as 0.14; in [8], 0.00; in test [9], −0.18; in test [10], 0.00; in [11] (setting [20]), 0.14; in [11] (setting [21]), 0.10. Further, the “logarithmic value of ratio of IC40 values” in [12] (setting [22]) is given as −0.15; in test [12] (setting [23]), −0.28; in test [13], 0.10; in test [14] it was 0.52; in [15], 0.00; in test [16], 0.24. Further, the “logarithmic value of ratio of IC40 values” was 0.07 in test [17], 0.14 in test [18] and −0.14 in test [19].
For `CNc1ccc2oc(C[C@H]3O[C@@]4(CC[C@H]3C)O[C@H]([C@H](C)C(=O)c3ccc[nH]3)[C@H](C)C[C@H]4C)nc2c1C(=O)O` [A23187], the “logarithmic value of ratio of IC40 values” in [1] is recorded as 0.35; in test [2], 0.00; in [3], 0.26; in test [4], 0.06; in test [5] it was −0.22; in test [6] it was 0.19. Further, the “logarithmic value of ratio of IC40 values” in [7] was 0.22; in test [8] it was 0.22; in test [9], −0.12; in test [10] it was 0.26; in [11] (setting [20]), 0.00; in [11] (setting [21]), −0.09. The “logarithmic value of ratio of IC40 values” in test [12] (setting [22]) is −0.28; in test [12] (setting [23]), 0.15; in test [13], −0.12; in test [14] it was 0.48; in [15] it was 0.31; in [16], −0.16. Besides, the “logarithmic value of ratio of IC40 values” in test [17] is reported as 0.15; in [18], 0.20; in test [19], −0.12.
For the molecule `C=C1[C@@H](O)[C@@H]2O[C@]3(CC[C@H](/C=C/[C@@H](C)[C@@H]4CC(C)=C[C@@]5(O[C@H](C[C@@](C)(O)C(=O)O)CC[C@H]5O)O4)O3)CC[C@H]2O[C@@H]1[C@@H](O)C[C@H](C)[C@H]1O[C@@]2(CCCCO2)CC[C@H]1C` [OA, okadaic acid], the “logarithmic value of ratio of IC40 values” in test [1] is given as 0; in [2] it was 0.00; in test [3] it was 0.08; in test [4] it was 0.04; in test [5], 0.00; in [6], 0.08. For the same molecule, the “logarithmic value of ratio of IC40 values” in test [7] is recorded as 0.12; in test [8] it was −0.52; in test [9], 0.12; in test [10] it was 0.11; in [11] (setting [20]), 0.00; in test [11] (setting [21]), 0.00. The “logarithmic value of ratio of IC40 values” was found to be 0.00 in test [12] (setting [22]); 0.00 in test [12] (setting [23]); 0.00 in [13]; 0.06 in test [14]; 0.14 in test [15]; 0.08 in test [16]. Besides, the results for the “logarithmic value of ratio of IC40 values” in [17], in test [18] and in test [19] were 0.21, 0.00 and −0.04, respectively.
